# Assay results published in publication PMC5845537 (Frontiers in Pharmacology, 2018).
# Read-outs that look alike come from different tables or passages of the source.
# Tests used:
# [1] = test system: GABAA receptor; test: Ex vivo autoradiography, GABAA receptor saturation binding ([3H]muscimol), medial prefrontal cortex; parameters: species or system rat; conditions: PCP/vortioxetine group vs all other treatment groups
# Description: Rats used in ex vivo autoradiography (EVA) experiments were randomly assigned to one of four experimental groups characterized by either subchronic saline or PCP (as described above) along with either vehicle or vortioxetine-infused food (1.8 g vortioxetine/kg food weight, as described in the attentional set shifting task). On day 8 of PCP withdrawal, rats were anesthetized using CO2 and killed by decapitation. Brains were quickly and gently removed from the skull, flash frozen on powdered dry ice, and stored at -20°C until sectioning. Later, 12 μm coronal sections were collected from an area ranging from approximately +4.2 mm to +2.3 mm anterior to Bregma ([Paxinos and Watson, 1998]) using a cryostat (MicroM, Germany) and were thaw-mounted on glass microscope slides. This range of coronal slices was chosen in order to study the prelimbic and infralimbic subregions of the medial prefrontal cortex, given the importance of these regions in tests of executive function such as the attentional set shifting task ([Ng et al., 2007]). After the tissue mounted on the microscope slides had dried thoroughly (in order to reduce damage from freezing), slides were packed into slide boxes with desiccator pellets, and stored at -20°C for use in EVA saturation binding and competition experiments.
# Each of the EVA procedures used in this study are variations on a similar theme. On the day of an experiment, slide-boxes were defrosted under a constant stream of air at room temperature until the boxes were dry and equilibrated with the environment in terms of temperature. This step was undertaken in order to ensure brain tissue was not damaged by frosting due to a sudden change in humidity. Prior to any binding experiments, slides were preincubated in the appropriate preincubation buffer and dried at room temperature. Subsequently, tissue was incubated in an assay buffer containing a radioligand appropriate for the receptor of interest, then rinsed in assay buffer, and dried overnight in a vacuum desiccator. Specific information on the contents of the preincubation buffers, assay buffers and other assay conditions are listed in Table 2. Finally, slides were opposed to a tritium-sensitive phosphor screen (Fuji imaging plate, GE Healthcare, Pittsburgh, PA, United States) for 5 days before being read in a phosphorimager (Typhoon FLA7000, GE Healthcare). Analysis methods are listed below under statistical analyses.
# In saturation binding experiments, the concentration of the relevant radioligand in the assay buffer was systematically varied in order to determine the KD and Bmax of the receptor in question. At each radioligand concentration, the non-specific binding was determined on a separate slide by including a high concentration of a non-radioactive competitor ligand in the assay buffer along with the radioligand. For GABAA receptor saturation binding experiments, [^3H]muscimol was examined in quarter log steps ranging from 0.56 to 300 nM. For GABAB receptor saturation binding experiments, [^3H]CGP54626 was examined in quarter log steps ranging from 0.17 to 100 nM.
# For saturation binding studies, the primary dependent measures were pKD and Bmax. […] A linear regression was performed to determine the relationship between intensity and bound radioactivity (measured on the standards in units of μCi/g). […] These optical intensity values were transformed into bound radioactivity (expressed as nCi/mg) measurements by interpolation from the standard curve noted above. […]
# [2] = test system: 5-HT3 receptor; test: 5-HT3 receptor occupancy (literature); type: in vivo, rat; conditions: 0.22 g/kg subchronic dose; estimated based on known SERT:5-HT3 receptor occupancy relationships; ref Leiser et al., 2014
# [3] = test system: 5-HT1A receptors; conditions: 2014, cited from earlier work
# [4] = test system: rodent 5-HT1A receptors; conditions: rodent vs human; no reference given; cited from earlier work
# [5] = test system: rodent 5-HT7 receptors; conditions: rodent vs human; no reference given; cited from earlier work
structure (smiles),measurement,setting,value
Cc1ccc(Sc2ccccc2N2CCNCC2)c(C)c1 [vortioxetine],effect of treatment on [3H]muscimol affinity for the GABAA receptor,[1],small but significant reduction
same,occupancy at 5-HT3 receptors,[2],full occupancy
same,occupancy at 5-HT1A receptors,"[3]; 10 mg/kg 1 h s.c., ref Leiser et al.",≈ 40%
same,occupancy at 5-HT1A receptors,"[3]; subchronic dose used in the mouse OR and object placement tasks, expected, ref Wallace et al., Waller et al., 2017",negligible
same,lesser affinity at rodent 5-HT1A receptors by comparison to humans,[4],approximately 10 fold
same,lesser affinity at rodent 5-HT7 receptors by comparison to humans,[5],approximately 10 fold
